Laboratory results: ChEMBL document CHEMBL5214882, “Targeting Atg4B for cancer therapy: Chemical mediators” (Eur J Med Chem, 2021)

What was measured:
Cysteine protease ATG4B = biological target: T1, Cysteine protease ATG4B (Homo sapiens, UniProt Q9Y4P1); assay: Inhibition of ATG4B (unknown origin) using proLC3B as substrate by FRET-LC3 assay
T1 sequence (Q9Y4P1 whole entry): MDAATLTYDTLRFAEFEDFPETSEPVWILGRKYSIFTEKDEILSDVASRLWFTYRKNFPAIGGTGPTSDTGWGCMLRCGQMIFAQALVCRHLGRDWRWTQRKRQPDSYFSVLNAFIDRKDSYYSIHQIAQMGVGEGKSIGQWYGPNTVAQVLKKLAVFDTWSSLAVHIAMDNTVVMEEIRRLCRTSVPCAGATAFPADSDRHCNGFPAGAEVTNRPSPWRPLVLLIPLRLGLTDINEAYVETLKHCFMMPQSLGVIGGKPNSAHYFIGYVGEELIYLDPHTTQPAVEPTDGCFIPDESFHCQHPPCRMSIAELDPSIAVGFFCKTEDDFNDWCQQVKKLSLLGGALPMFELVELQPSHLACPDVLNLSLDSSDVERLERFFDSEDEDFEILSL

HCT-116 = assay: Antitumor activity against human HCT-116 cells […] in mouse assessed as tumor growth inhibition at 50 mg/kg,sc administered for 5 weeks by 3 times a week; format: functional; conditions: HCT-116, 840 h

| SMILES | IC50 (Cysteine protease ATG4B) [µM] | inhibition in vivo at 50 mg/kg (HCT-116) [%] |
| --- | --- | --- |
| O=C(N[C@@H](Cc1ccccc1)C(=O)CCl)OCc1ccccc1 | 3.3 |  |
| COc1ccc(Nc2cc(C)nc(Nc3ccc(-c4cc5ccccc5o4)cc3)n2)cc1 |  | 75 |
| Cc1cc(O)c2c(=O)c3c(O)cc(O)c4c5c(O)cc(O)c6c(=O)c7c(O)cc(C)c8c1c2c(c34)c(c78)c65 [HYPERICIN] | 8.9 |  |
